According to patent US8835644B2, “Broad spectrum benzothiophene-nitrothiazolide and other antimicrobials” (University of Virginia Patent Foundation, priority 2009, dated 2014):
Converted amounts (≈) assume the structure as drawn. Like-named read-outs stand apart in the source and are kept apart here. Marks after values point to notes of the source that are not given here.

Assays:
[1] = test system: H. pylori; test: MIC testing by broth dilution, H. pylori; format: cell-based, Helicobacter pylori
Method in brief: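 Broth dilution MIC determination against H. pylori: a standard inoculum in 100 microliters of Brain Heart Infusion medium was placed in 96 well microplates. Test compounds began at 32 μg/ml in 200 microliters in well one and were serially diluted over a 32 to 0.06 range. After 24 h, plates were scored by eye and the first well without growth was recorded as the MIC.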

[2] = test system: C. jejuni; test: MIC testing by broth dilution, C. jejuni; format: cell-based, Campylobacter jejuni
Method in brief: (§1)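 Media: LB (E. coli), Trypticase Soy (S. epidermidis), BHI (C. jejuni); plank cells. C. difficile on Wilkins Chalgrin agar, anaerobic Kirby-Bauer disks, zone vs NTZ zone ratio.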

[3] = test system: MRSA; test: MIC testing by broth dilution, MRSA; format: cell-based, Staphylococcus aureus
Method in brief: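 Values are broth-dilution MICs, defined as the well showing no growth on visual reading after 24 h; the tested range was 32 to 0.06 μg/ml, in organism-specific media (LB, Trypticase Soy, Brain Heart Infusion). The C. difficile entries come instead from anaerobic Kirby-Bauer disk zones, normalised to NTZ.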

[4] = test system: S. epidermidis; test: MIC testing by broth dilution, S. epidermidis plank; format: cell-based, Staphylococcus epidermidis
Method in brief: as §1

[5] = test system: S. epidermidis biofilm; test: S. epidermidis biofilm assay (activity tables); format: cell-based, Staphylococcus epidermidis; conditions: for MIC S. epidermidis Biofilm: Furan analogues table
Description: Staphylococcal strains were cultured overnight in TSB at 37° C. with shaking, diluted in fresh medium to an OD600 of 0.01 and 200 W was dispensed into sterile flat bottom polystyrene 96 well microtiter plates (Costar 3596, Corning Inc.). […] Each compound and dilution was tested in triplicate. The plates were incubated overnight at 37° C. in a humidified incubator, without shaking and both growth and biofilm accumulation were determined at 16 h.
Following recording of turbidities, the culture medium was aspirated and the wells were washed three times with distilled water, blotted on paper towels, and fixed with 75% ethanol for 10 minutes.
To visualize biofilm material, 0.5% crystal violet was added to each well and after 5 minutes was removed and the wells washed three times with distilled water. Plates were read using a microplate reader at a wavelength of 570 nm. The dye was then extracted by adding 200 W of 95% ethanol, and the absorbance was read again at 570 nm. All assays were performed in triplicate and the mean and standard deviation determined. […]
(§2) Representative compounds of the invention were tested in a series of assays against a series of organisms as described above. […] The organisms tested include, C. difficile, H. pylori, C. jejuni, MRSA, S. epidermidis, and E. coli. S. epidermidis and E. coli were tested in the plank and biofilm assay. A disk diffusion assay was also used for C. difficile. Direct PFOR enzyme assays were also performed. All analogues and derivatives were not tested on every organism in every type of assay (the “-” in each table means that it was not tested).

[6] = test system: E. coli; test: MIC testing by broth dilution, E. coli plank; format: cell-based, Escherichia coli
Method in brief: as §1

[7] = test system: E. coli biofilm; test: E. coli biofilm assay (activity tables); format: cell-based, Escherichia coli
Method in brief: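 After 24 h static culture at 37 °C in wells containing NTZ, strain 042 (1:100 inoculum) biofilm was quantified by 0.5% crystal violet absorbance at 570 nm. Planktonic growth was taken from turbidity or LB plate counts as cfu/ml; all runs triplicate, reported as mean and SD.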

[8] = test system: C. difficile; test: Disk diffusion (Kirby Bower), C. difficile; format: cell-based, Clostridium difficile; conditions: for Disk Diffusion (%) C. difficile: zone of inhibited growth as relative ratio to the zone for NTZ
Method in brief: as §1

[9] = test system: PFOR (pyruvate ferredoxin oxidoreductase); test: Direct PFOR enzyme assay; format: biochemical
Description: as §2

[10] = test system: C. difficile; test: MIC by agar dilution, C. difficile; format: cell-based, Clostridium difficile; conditions: agar dilution, anaerobic, Wilkins Chalgrin agar; read-out: MIC (μM) C. difficile
Description: A standard broth dilution protocol was used in 96 well microplates containing a standard dilution of the microorganism to be tested in 100 microliters of the appropriate medium. Appropriate medium: E. coli, LB medium; Staphylococcus strains, Trypticase Soy; and for H. pylori and C. jejuni, Brain Heart Infusion. The compounds to be tested were set at 32 μg/ml in 200 microliters in well one and then serially diluted to provide a range from 32 to 0.06. The wells were scored visually at 24 h. The well where there was no growth was recorded as the MIC. […]
as §2

[11] = Furan analogues table, read-out: MIC H. pylori
[12] = Furan analogues table, read-out: MIC C. jejuni
[13] = Furan analogues table, read-out: MIC MRSA
[14] = planktonic, Furan analogues table, read-out: MIC S. epidermidis Plank
[15] = planktonic, Furan analogues table, read-out: MIC E. coli Plank
[16] = biofilm, Furan analogues table, read-out: MIC E. coli Biofilm
[17] = broth dilution, Brain Heart Infusion, 24 h, read-out: MIC (μM) H. pylori
[18] = broth dilution, Brain Heart Infusion, 24 h, read-out: MIC (μM) C. jejuni
[19] = broth dilution, Trypticase Soy, 24 h, read-out: MIC (μM) MRSA
[20] = broth dilution, Trypticase Soy, 24 h, read-out: MIC (μM) S. epidermidis Plank
[21] = broth dilution, LB medium, 24 h, read-out: MIC (μM) E. coli Plank
[22] = biofilm, read-out: MIC (μM) E. coli Biofilm

O=C(Nc1ncc([N+](=O)[O-])s1)c1ccco1 [VPC161124]
MIC [1, 11]: 1.0 µM (≈ 0.239 µg/mL) | MIC [2, 12]: 8.4 µM (≈ 2.01 µg/mL) | MIC [3, 13]: 50.2 µM (≈ 12 µg/mL) | MIC [4, 14]: 66.9 µM (≈ 16 µg/mL) | MIC S. epidermidis Biofilm [5]: 66.9 µM (≈ 16 µg/mL) | MIC [6, 15]: 133.8 µM (≈ 32 µg/mL) | MIC [7, 16]: 33.4 µM (≈ 7.99 µg/mL) | Disk Diff (%) C. difficile ([8]; Nitazoxanide = 100, Furan analogues table): 100% | PFOR inhibition relative to nitazoxanide (=100) ([9]; Furan analogues table): 82%

O=C(Nc1ncc([N+](=O)[O-])s1)c1cc2ccccc2o1 [VPC161144]
MIC [1, 11]: 0.6 µM (≈ 0.174 µg/mL) | MIC [2, 12]: 110.6 µM (≈ 32 µg/mL) | MIC [3, 13]: 57.0 µM (≈ 16.5 µg/mL) | MIC [4, 14]: 110.6 µM (≈ 32 µg/mL) | MIC S. epidermidis Biofilm [5]: 110.6 µM (≈ 32 µg/mL) | MIC [6, 15]: 110.6 µM (≈ 32 µg/mL) | MIC [7, 16]: 110.6 µM (≈ 32 µg/mL) | PFOR inhibition relative to nitazoxanide (=100) ([9]; Furan analogues table): 70%

O=C(Nc1ncc([N+](=O)[O-])s1)c1cc(Br)c(Br)o1 [VPC161164]
MIC [1, 11]: 2.8 µM (≈ 1.11 µg/mL) | MIC [2, 12]: 20.2 µM (≈ 8.02 µg/mL) | MIC [3, 13]: 3.8 µM (≈ 1.51 µg/mL) | MIC [4, 14]: 15.1 µM (≈ 5.99 µg/mL) | MIC S. epidermidis Biofilm [5]: 20.2 µM (≈ 8.02 µg/mL) | MIC [6, 15]: 60.5 µM (≈ 24 µg/mL) | MIC [7, 16]: 40.3 µM (≈ 16 µg/mL) | PFOR inhibition relative to nitazoxanide (=100) ([9]; Furan analogues table): 56%

O=C(Nc1ncc([N+](=O)[O-])s1)c1ccc(F)cc1 [VPC161167, 4-Fluoro-N-(5-nitrothiazol-2-yl)benzamide]
MIC ([1]; Helicobacter pylori, 24 h, read-out: MIC (μM) H. pylori): 0.9 µM (≈ 0.241 µg/mL) | MIC ([2]; Campylobacter jejuni, 24 h, read-out: MIC (μM) C. jejuni): 2.8 µM (≈ 0.748 µg/mL) | MIC ([3]; Staphylococcus aureus, MRSA, 24 h, read-out: MIC (μM) MRSA): 8.4 µM (≈ 2.24 µg/mL) | MIC ([4]; Staphylococcus epidermidis, 24 h, read-out: MIC (μM) S. epidermidis Plank): 15 µM (≈ 4.01 µg/mL) | MIC (μM) S. epidermidis Biofilm [5]: 29.9 µM (≈ 7.99 µg/mL) | MIC ([6]; Escherichia coli, 24 h, read-out: MIC (μM) E. coli Plank): 120 µM (≈ 32 µg/mL) | MIC ([7]; Escherichia coli, read-out: MIC (μM) E. coli Biofilm): 120 µM (≈ 32 µg/mL) | Disk Diffusion (%) C. difficile [8]: 89% | PFOR inhibition relative to nitazoxanide (=100) [9]: 99%

O=C(Nc1ncc([N+](=O)[O-])s1)c1ccc(C(=O)C(F)(F)F)cc1 [VPC161175]
MIC [10]: 23.2 µM (≈ 8.01 µg/mL) | MIC [1, 17]: 4.3 µM (≈ 1.48 µg/mL) | MIC [2, 18]: 69.5 µM (≈ 24 µg/mL) | MIC [3, 19]: 92.7 µM (≈ 32 µg/mL) | MIC [4, 20]: 92.7 µM (≈ 32 µg/mL) | MIC (μM) S. epidermidis Biofilm [5]: 92.7 µM (≈ 32 µg/mL) | MIC [6, 21]: 92.7 µM (≈ 32 µg/mL) | MIC [7, 22]: 92.7 µM (≈ 32 µg/mL)

O=C(C=Cc1ccccc1)Nc1ncc([N+](=O)[O-])s1 [VPC161200]
MIC [1, 17]: 0.3 µM (≈ 0.0826 µg/mL) | MIC [2, 18]: 2.7 µM (≈ 0.743 µg/mL) | MIC [3, 19]: 116.2 µM (≈ 32 µg/mL) | MIC [4, 20]: 29.1 µM (≈ 8.01 µg/mL) | MIC (μM) S. epidermidis Biofilm [5]: 14.5 µM (≈ 3.99 µg/mL) | MIC [6, 21]: 116.2 µM (≈ 32 µg/mL) | MIC [7, 22]: 116.2 µM (≈ 32 µg/mL) | PFOR inhibition relative to nitazoxanide (=100) [9]: 93%

O=C(Nc1nc(Cl)c([N+](=O)[O-])s1)c1ccccc1 [VPC162087]
MIC [1, 17]: 8.8 µM (≈ 2.5 µg/mL) | MIC [2, 18]: 7.1 µM (≈ 2.01 µg/mL) | MIC [3, 19]: 112.8 µM (≈ 32 µg/mL) | MIC [4, 20]: 35.2 µM (≈ 9.99 µg/mL) | MIC [6, 21]: 112.8 µM (≈ 32 µg/mL) | Disk Diffusion (%) C. difficile [8]: 66% | PFOR inhibition relative to nitazoxanide (=100) [9]: 107%

O=C(Nc1nc(Cl)c([N+](=O)[O-])s1)c1cccc(C(F)(F)F)c1 [VPC162088]
MIC [1, 17]: 5.7 µM (≈ 2 µg/mL) | MIC [2, 18]: 34.1 µM (≈ 12 µg/mL) | MIC [3, 19]: 11.4 µM (≈ 4.01 µg/mL) | MIC [4, 20]: 8.5 µM (≈ 2.99 µg/mL) | MIC [6, 21]: 91.0 µM (≈ 32 µg/mL) | Disk Diffusion (%) C. difficile [8]: 76% | PFOR inhibition relative to nitazoxanide (=100) [9]: 49** %
